These results are taken from patent publication US10221426B2, “Constitutively active PYR/PYL receptor proteins for improving plant stress tolerance” (The Regents of the University of California, priority 2009, dated 2019).

In this assay the test system is PYR/PYL receptors PYR1, PYL2, PYL3, and/or PYL4. Kind of assay: Yeast two hybrid agonist screens (conventional and halo assays; compound library and plant extracts). It is filed as cell-based, Arabidopsis. From the text:
We next investigated whether other compounds besides ABA and pyrabactin could act as agonists of PYR/PYL proteins. Yeast two hybrid strains expressing ABA-receptors and type 2 C protein phosphatases in the appropriate vectors can be used to monitor activation of ABA receptors. These yeast strains therefore create a facile screening system for the identification of cell permeant compounds that act as ABA agonists, i.e. compounds that promote binding of PYR/PYL family members to their protein phosphatase targets. […]
To conduct these agonist assays, screening compounds are added to microtiter wells and appropriate yeast growth media are added. The wells are then seeded with PYR/PYL-PP2C strains and agonist activity is monitored after growth of the strains on the chemical-containing medium. […]
Using a combination of the conventional and halo assays as described above, 65,000 screening compounds were tested for activation of PYR1, PYL2, PYL3 or PYL4 expressing yeast two hybrid strains. Hit compounds that activated any of the yeast strains were retested on all 4 yeast strains and activity assessed qualitatively using X-gal staining assays. […]

As to copaenoic acid, the “activation of PYR/PYL yeast two hybrid strains” value is “naturally occurring ABA agonist”.
